Blank lines part the entries; values can stand above or below the compound they belong to.
Columns and labels:
Format in all cases: physicochemical
[1] = Blend with excipients pressed to a tablet, analyzed by PXRD; conditions: 70 mg form A3 with lactose monohydrate, magnesium stearate, microcrystalline celulose, hydroxypropylmethyl celulose
Protocol: (§1) XRD diffraction was performed on X-Ray powder diffractometer: Philips X'pert Pro powder diffractometer, CuKα radiation, λ=1.5418 Å. X'Celerator detector active length (2 theta)=2.122°, laboratory temperature 22-25° C. Zero background sample holders. Prior to analysis the samples were gently ground by means of mortar and pestle in order to obtain a fine powder. The ground sample was adjusted into a cavity of the sample holder and the surface of the sample was smoothed by means of a cover glass.

[2] = Heating of form A3 on oil bath up to 208° C., MS check; conditions: 200 mg heated gradually up to 208° C. at final 0.7 Pa for about 15 min
Protocol: Dasatinib (200 mg, form A3) was heated on oil bath gradually up to 208° C. at final 0.7 Pa for about 15 min.

[3] = Slurry of form N-6 in methanol: conversion to form B, solid phase analyzed by PXRD; conditions: for content of form B in the recovered solid (PXRD): form N-6 75 mg slurried in 1 ml methanol, filtered, dried on air
Protocol: as §1
Dasatinib (form N-6, 75 mg) was put into vial and 1 ml of methanol was added. The slurry was then left at 0° C. for 2 days. The solid phase was filtered off and left to dry on air.
Dasatinib (form N-6, 75 mg) was put into vial and 1 ml of methanol was added. The slurry was then left at 20° C. for 2 days respectively. The solid phase was filtered off and left to dry on air.

- crystalline form found in the pressed tablet (PXRD) [1]: belonging to form A3
- chemical change on heating (MS) [2]: without any chemical change
- sublimation on heating [2]: None sublimation was observed
SMILES: Cc1nc(Nc2ncc(C(=O)Nc3c(C)cccc3Cl)s2)cc(N2CCN(CCO)CC2)n1 [form A3, dasatinib]

- stability of the crystalline form ([3]; at a temperature of about 20° C. and below): relatively stable
SMILES: Cc1nc(Nc2ncc(C(=O)Nc3c(C)cccc3Cl)s2)cc(N2CCN(CCO)CC2)n1 [form B, dasatinib]

- content of form B in the recovered solid (PXRD) ([3]; left at 0° C. for 2 days): about 10%
- content of form B in the recovered solid (PXRD) ([3]; left at 20° C. for 2 days): about 1%
- polymorphic conversion on slurrying ([3]; slurried at about 20° C. to about 0° C. for 2 days): converted to form B
SMILES: Cc1nc(Nc2ncc(C(=O)Nc3c(C)cccc3Cl)s2)cc(N2CCN(CCO)CC2)n1 [form N-6, dasatinib]

Source: patent US8067423B2, “Polymorphs of dasatinib isopropyl alcohol and process for preparation thereof” (Teva Pharmaceutical Industries Ltd., priority 2007, dated 2011)
